Assay results reported in patent publication EP0293532A1, “6- or 7-beta-[2-[4-(substituted)-2,3-dioxopiperazin-1-yl) carbonylamino]-(substituted)acetamido]-penicillin and cephalosporin derivatives” (BEECHAM GROUP PLC, priority 1987, dated 1988).
Counter-ions that a name gives are not always drawn.

Experiments:
Assay in all cases: MIC by serial dilution in Iso-sensitest agar
Format in all cases: cell-based
E.Coli DC RTEM = settings: Escherichia coli
Procedure: (§1) Minimum Inhibitory Concentration (MIC) values of compounds of the invention against a variety of organisms were determined by serial dilution in Iso-sensitest agar (from Oxoid Ltd. Basingstoke, England). The plates were inoculated with 10⁴ colony-forming units and incubated overnight at 37°C. The MIC values recorded in Table I were the lowest concentration of antibiotic to inhibit growth. Comparative data for Piperacillin (6β-[D-2-[(4-ethyl-2, 3-dioxopiperazin-1-yl)carbonylamino]-2-phenylacetamido] -penicillanic acid, sodium salt) and for the compound 6α-formamido-6β-[D-2-[(4-ethyl-2, 3-dioxopiperazin-1-yl)carbonylamino]-2- phenyl acetamido]-penicillanic acid, sodium salt (Compound A) disclosed in U.K. Patent GB-2107307B, are also given.

K.pneumoniae T767 = settings: Klebsiella pneumoniae, 10⁴ colony-forming units, overnight at 37°C, lowest concentration to inhibit growth
Procedure: as §1

P.aeruginosa K79961 = settings: Pseudomonas aeruginosa, 10⁴ colony-forming units, overnight at 37°C, lowest concentration to inhibit growth
Procedure: as §1

E.Coli JT 425 = settings: Escherichia coli, JT425, 10⁴ colony-forming units, overnight at 37°C, lowest concentration to inhibit growth
Procedure: as §1

P.aerginosa 10662 = settings: 10⁴ colony-forming units, overnight at 37°C, lowest concentration to inhibit growth
Procedure: as §1

S agalactiae 2798 = settings: 10⁴ colony-forming units, overnight at 37°C, lowest concentration to inhibit growth
Procedure: as §1

Structure (SMILES) | MIC (E.Coli DC RTEM) | MIC (K.pneumoniae T767) | MIC (P.aeruginosa K79961) | MIC (E.Coli JT 425) | MIC (P.aerginosa 10662) | MIC (S agalactiae 2798)
CCN1CCN(C(=O)N[C@@H](C(=O)N[C@]2(NC=O)C(=O)N3[C@@H](C(=O)O)C(C)(C)S[C@@H]32)c2ccccc2)C(=O)C1=O [Compound A, 6α-formamido-6β-[D-2-[(4-ethyl-2,3-dioxopiperazin-1-yl)carbonylamino]-2-phenylacetamido]-penicillanic acid, sodium salt, reference compound] | 0.12 µg/mL | 0.12 µg/mL | 0.12 µg/mL | 0.25 µg/mL | 1 µg/mL | 64 µg/mL
CO[C@@]1(NC(=O)[C@H](NC(=O)N2CCN(Cc3ccc(O)c(O)c3)C(=O)C2=O)c2ccccc2)C(=O)N2[C@@H](C(=O)O)C(C)(C)S[C@@H]21 [Example 3, Sodium 6β-[D-2-[[4-(3,4-Dihydroxybenzyl)-2,3-dioxopiperazin-1-yl]carbonylamino]-2-phenylacetamido]-6α-methoxypenicillanate] | 2 µg/mL | 0.25 µg/mL | 1 µg/mL | 16 µg/mL | 4 µg/mL | > 128 µg/mL
CC1(C)S[C@@H]2[C@H](NC(=O)[C@H](NC(=O)N3CCN(Cc4ccc(O)c(O)c4)C(=O)C3=O)c3ccccc3)C(=O)N2[C@H]1C(=O)O [Example 1, Sodium 6β-[D-2[[4-(3,4-Dihydroxybenzyl)-2,3-dioxopiperazin-1-yl]carbonylamino]-2-phenylacetamido]penicillanate] | 4 µg/mL | 0.5 µg/mL | < 0.06 µg/mL | 1 µg/mL | 0.12 µg/mL | 0.25 µg/mL
CC1(C)S[C@H]2N(C(=O)[C@@]2(NC=O)NC(=O)[C@H](NC(=O)N2CCN(Cc3ccc(O)c(O)c3)C(=O)C2=O)c2ccccc2)[C@H]1C(=O)O [Example 2, Sodium 6β-[D-2[[4-(3,4-Dihydroxybenzyl)-2,3-dioxopiperazin-1-yl]carbonylamino]-2-phenylacetamido]-6α-formamidopenicillanate] | < 0.03 µg/mL | < 0.03 µg/mL | 0.12 µg/mL | < 0.03 µg/mL | 0.12 µg/mL | 16 µg/mL
CC1(C)S[C@H]2N(C(=O)[C@@]2(NC=O)NC(=O)[C@H](NC(=O)N2CCN(Cc3cc(O)c(O)cn3)C(=O)C2=O)c2ccccc2)[C@H]1C(=O)O [Example 6, Sodium 6β-[D-2-[[4-(4,5-Dihydroxypyridin-2-ylmethyl)-2,3-dioxopiperazin-1-yl]carbonylamino]-2-phenylacetamido]-6α-formamidopenicillanate] | 0.06 µg/mL | 0.06 µg/mL | 0.3 µg/mL | 0.25 µg/mL | 1 µg/mL | > 32 µg/mL
CCN1CCN(C(=O)N[C@@H](C(=O)N[C@@H]2C(=O)N3[C@@H]2SC(C)(C)[C@@H]3C(=O)O)c2ccccc2)C(=O)C1=O [Piperacillin, 6β-[D-2-[(4-ethyl-2,3-dioxopiperazin-1-yl)carbonylamino]-2-phenylacetamido] -penicillanic acid, sodium salt, reference compound] | > 128 µg/mL | 8 µg/mL | 0.25 µg/mL | 32 µg/mL | 8 µg/mL | 0.5 µg/mL
